Experimental findings from patent publication US20220315578A1, “BRD9 BIFUNCTIONAL DEGRADERS AND THEIR METHODS OF USE” (NOVARTIS AG, priority 2019, published 2022) are described below.

This assay addresses T1, BRD9-GFP (Homo sapiens, UniProt Q9H8M2).
T1 construct: CHYSEL (2A cis-acting hydrolase element) remnant after GFP; mCherry is split off as a separate protein (C); expressed in transfected cells; host or cells: HEK293A cells (Invitrogen R70507), lentiviral transduction with pLenti6-BRD9-GFP-CHYSEL-mCherry, blasticidin selection
T1 sequence (Q9H8M2 1-597): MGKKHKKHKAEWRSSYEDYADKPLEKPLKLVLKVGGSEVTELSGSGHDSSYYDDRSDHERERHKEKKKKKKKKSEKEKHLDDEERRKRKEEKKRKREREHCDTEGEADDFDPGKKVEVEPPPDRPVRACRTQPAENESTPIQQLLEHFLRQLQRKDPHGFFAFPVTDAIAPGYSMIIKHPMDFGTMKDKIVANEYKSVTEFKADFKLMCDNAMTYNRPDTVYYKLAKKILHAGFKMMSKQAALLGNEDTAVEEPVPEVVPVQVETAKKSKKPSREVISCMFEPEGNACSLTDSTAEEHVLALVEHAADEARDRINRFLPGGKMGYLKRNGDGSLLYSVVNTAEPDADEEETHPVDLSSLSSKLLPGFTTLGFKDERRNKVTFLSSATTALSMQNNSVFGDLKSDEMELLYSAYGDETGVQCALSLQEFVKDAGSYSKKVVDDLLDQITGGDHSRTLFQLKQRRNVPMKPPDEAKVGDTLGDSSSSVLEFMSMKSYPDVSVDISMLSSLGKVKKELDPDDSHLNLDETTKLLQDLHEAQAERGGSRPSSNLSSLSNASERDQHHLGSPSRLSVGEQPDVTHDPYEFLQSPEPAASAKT
Put plainly: BRD9-GFP protein abundance flow cytometry assay in HEK293A cells. The settings on record: HEK293A-BRD9-GFP-CHYSEL-mCherry cells; for BRD9 Deg Amax %: 24 h, % protein remaining at the concentration at which maximum degradation is seen; for DC50: 24 h at 37° C., 10-point 1:3 dilution, concentration at which 50% maximal degradation was observed. The format is cell-based. In a few lines:
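HEK293A cells stably express bicistronic BRD9-GFP-CHYSEL-mCherry and received 24 h treatment at 37° C with a 10-point, 3-fold dilution series from […], in 0.1% DMSO and duplicate. Median GFP/mCherry ratio of 5,000 single cells by flow cytometry, normalized to mCherry-only cells (0%) and DMSO (100%), gave DC50 and Amax (% protein remaining).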
Background: Flow cytometry measures light scatter and fluorescence of single cells or particles in a stream.

As usually defined, the DC50 is the midpoint of the concentration-degradation curve. Read a high DC50 as a less potent degrader. Regarding `CCCCn1cc(-c2cc(OC)c(CN3CCC(OC4CCN(C(=O)c5ccc(OC)c(N6CCC(=O)NC6=O)c5)CC4)CC3)cc2OC)c2ccncc2c1=O` [Compound B3, 1-(5-(4-((1-(4-(2-butyl-1-oxo-1,2-dihydro-2,7-naphthyridin-4-yl)-2,5-dimethoxybenzyl)piperidin-4-yl)oxy)piperidine-1-carbonyl)-2-methoxyphenyl)dihydropyrimidine-2,4(1H,3H)-dione], the “BRD9 Deg Amax %” value was 10.95% and half-maximal degradation (DC50) was put at 27 nM.
As to `COc1cc(-c2cn(C)c(=O)c(C)c2C)ccc1CN1CCN(CC2CCN(C(=O)c3cccc(N4CCC(=O)NC4=O)c3)CC2)CC1` [Compound A15, 1-(3-(4-((4-(2-Methoxy-4-(1,4,5-trimethyl-6-oxo-1,6-dihydropyridin-3-yl)benzyl)piperazin-1-yl)methyl)piperidine-1-carbonyl)phenyl)dihydropyrimidine-2,4(1H,3H)-dione], the “BRD9 Deg Amax %” value was 29.47% and the half-maximal degradation concentration (DC50) was found to be 49 nM.
As to `CCCCn1cc(-c2cc(F)c(CN3CCC(OC4CCN(C(=O)COc5ccc(C)c(N6CCC(=O)NC6=O)c5)CC4)CC3)c(F)c2)c2ccncc2c1=O` [Compound E45, 1-(5-(2-(4-((1-(4-(2-butyl-1-oxo-1,2-dihydro-2,7-naphthyridin-4-yl)-2,6-difluorobenzyl)piperidin-4-yl)oxy)piperidin-1-yl)-2-oxoethoxy)-2-methylphenyl)dihydropyrimidine-2,4(1H,3H)-dione], the “BRD9 Deg Amax %” value was 15.28% and the DC50 was 7 nM.
`CCCCn1cc(-c2cc(OC)c(CCN3CCC(OC4CCN(CCn5cccc(CN6CCC(=O)NC6=O)c5=O)CC4)CC3)c(OC)c2)c2ccncc2c1=O` [Compound D4, 1-((1-(2-(4-((1-(4-(2-butyl-1-oxo-1,2-dihydro-2,7-naphthyridin-4-yl)-2,6-dimethoxyphenethyl)piperidin-4-yl)oxy)piperidin-1-yl)ethyl)-2-oxo-1,2-dihydropyridin-3-yl)methyl)dihydropyrimidine-2,4(1H,3H)-dione]: the “BRD9 Deg Amax %” value is on record as 16.34% and it took 3 nM to reach half-maximal degradation (DC50).
As to `CCCCn1cc(-c2ccc(O[C@H]3CCN(CC4CCN(C(=O)c5ccc(OC)c(N6CCC(=O)NC6=O)c5)CC4)C[C@@H]3F)cc2)c2ccncc2c1=O` [Compound E31, 1-(5-(4-(((3S,4S)-4-(4-(2-butyl-1-oxo-1,2-dihydro-2,7-naphthyridin-4-yl)phenoxy)-3-fluoropiperidin-1-yl)methyl)piperidine-1-carbonyl)-2-meth-oxyphenyl)dihydro-pyrimidine-2,4(1H,3H)-dione], the “BRD9 Deg Amax %” value is reported as 16.43% and half-maximal degradation (DC50) was put at 1 nM.
